Reference: ChEMBL document CHEMBL1128242, “Polyiodinated triglyceride analogs as potential computed tomography imaging agents for the liver” (J Med Chem, 1995)

Experiments:
Type in all cases: ADME, organism-based
Rattus norvegicus [1] = experiment: Distribution of radioactivity was determined in blood at 30 min after intravenous administration of 1,3-Disubstituted Triacylglycerols in rats; conditions: in vivo, 0.5 h
Rattus norvegicus [2] = experiment: Distribution of radioactivity was determined in blood at 3h after intravenous administration of 1,3-Disubstituted Triacylglycerols in rats; conditions: in vivo
Rattus norvegicus [3] = experiment: Distribution of radioactivity was determined in plasma at 3h after intravenous administration of [125I]-labeled 2-oleoglycerol 1,3-Bis-[omega-(3-amino-2,4,6-triiodophenyl)alkanoates] in rats; conditions: in vivo
Rattus norvegicus [4] = experiment: Distribution of radioactivity was determined in spleen at 30 min after intravenous administration of 1,3-Disubstituted Triacylglycerols in rats; conditions: in vivo, 0.5 h
Rattus norvegicus [5] = experiment: Distribution of radioactivity was determined in spleen at 30 min after intravenous administration of [125I]-labeled 2-oleoglycerol 1,3-Bis-[omega-(3-amino-2,4,6-triiodophenyl)alkanoates] in rats; conditions: in vivo, 0.5 h
Rattus norvegicus [6] = experiment: Distribution of radioactivity was determined in blood at 24 hr after intravenous administration of 1,3-Disubstituted Triacylglycerols in rats; conditions: in vivo
Rattus norvegicus [7] = experiment: Distribution of radioactivity was determined in blood at 24 hr after intravenous administration of [125I]-labeled 2-oleoglycerol 1,3-Bis-[omega-(3-amino-2,4,6-triiodophenyl)alkanoates] in rats; conditions: in vivo
Rattus norvegicus [8] = experiment: Distribution of radioactivity was determined in kidney at 30 min after intravenous administration of [125I]-labeled 2-oleoglycerol 1,3-Bis-[omega-(3-amino-2,4,6-triiodophenyl)alkanoates] in rats; conditions: in vivo, 0.5 h
Rattus norvegicus [9] = experiment: Polyacrylamide Gel Electrophoresis (PAGE) to determined the concentration of low density lipoprotein (LDL) in rats after iv administration of [125I]-labeled 2-Oleolyl 1,3-disubstituted triglycerols was reported; conditions: in vivo
Rattus norvegicus [10] = experiment: Polyacrylamide Gel Electrophoresis (PAGE) to determined the concentration of stacking gel(SG) in rats after iv administration of [125I]-labeled 2-Oleolyl 1,3-disubstituted triglycerols was reported; conditions: in vivo
Rattus norvegicus [11] = experiment: Distribution of radioactivity was determined in liver at 3h after intravenous administration of [125I]-labeled 2-oleoglycerol 1,3-Bis-[omega-(3-amino-2,4,6-triiodophenyl)alkanoates] in rats; conditions: in vivo
Rattus norvegicus [12] = experiment: Distribution of radioactivity was determined in plasma at 24 hr after intravenous administration of [125I]-labeled 2-oleoglycerol 1,3-Bis-[omega-(3-amino-2,4,6-triiodophenyl)alkanoates] in rats; design: unit not given here; conditions: in vivo
Rattus norvegicus [13] = experiment: Analysis of lipid-soluble radioactivity in plasma 0.5 hour after iv administration of [125I]-labeled 2-Oleoyl 1,3-disubstituted Triacylglycerols expressed as %parent compound (by TLC with authentic [125I]-labeled standard) from rat; conditions: in vivo

| Distribution of radioactivity (Rattus norvegicus [1]) [% dose/organ] | Distribution of radioactivity (Rattus norvegicus [2]) [% dose/organ] | Distribution of radioactivity (Rattus norvegicus [3]) [% dose/g] | Distribution of radioactivity (Rattus norvegicus [4]) [% dose/organ] | Distribution of radioactivity (Rattus norvegicus [5]) [% dose/g] | Distribution of radioactivity (Rattus norvegicus [6]) [% dose/organ] | Distribution of radioactivity (Rattus norvegicus [7]) [% dose/g] | Distribution of radioactivity (Rattus norvegicus [8]) [% dose/g] | Radioactivity (Rattus norvegicus [9]) [%] | Radioactivity (Rattus norvegicus [10]) [%] | Distribution of radioactivity (Rattus norvegicus [11]) [% dose/g] | Distribution of radioactivity (Rattus norvegicus [12]) | Lipid-soluble radioactivity (Rattus norvegicus [13]) | Structure (SMILES) |
| --- | --- | --- | --- | --- | --- | --- | --- | --- | --- | --- | --- | --- | --- |
| 5.8 | 0.9 | 0.13 | 13.7 | 31.7 | 1.5 | 0.15 | 0.14 | 3.2 | 80.9 | 13.8 | 0.24 | 85.8 | CCCCCCCC/C=C/CCCCCCCC(=O)OC(COC(=O)CCCc1c(I)cc(I)c(N)c1I)COC(=O)CCCc1c(I)cc(I)c(N)c1I |
| 5.1 | 0.7 | 0.09 | 13 | 27.6 | 0.4 | 0.04 | 0.11 | 8.3 | 67.3 | 10.9 | 0.05 | – | CCCCCCCC/C=C/CCCCCCCC(=O)OC(COC(=O)CCc1c(I)cc(I)c(N)c1I)COC(=O)CCc1c(I)cc(I)c(N)c1I |
